Data published in patent US10137105B2, “Combination treatment protocol” (Bionomics Limited, priority 2015, dated 2018).

Experiments:
[1] = tested on: CLL cells on L4.5 stroma; test: Apoptosis of CLL cells co-incubated 24 h on CD154+ L4.5 stromal cells; assay type: cell-based, human
Experimental: (§1) CLL cells were obtained from consented patients at the Norris Cotton Cancer Center. Cells were purified by centrifugation in Ficoll-Paque PLUS from 10 mL of blond. Lymphocytes were plated in RPMI 1640 plus 10% serum at 1×10^6 cells/mL after three washes in PBS+2 mmol/L EDTA. Cells were either incubated immediately with reagents or after 24 h incubation with confluent layers of CD154+ stromal cells (L 4.5) at a ratio of 5:1.
(§2) Cells were incubated for […] with 2 μg/mL Hoechst 33342 at 37° C. and visualized with a fluorescent microscope. At least 200 cells were scored for each sample. The percentage of cells with condensed chromatin was recorded.
The experiments above have shown that CLL cells are usually very sensitive to EX2. However, these cells were isolated from peripheral blood, and the real problem to curing CLL is to be able to kill cells that reside in the lymph node or bone marrow niche. To mimic this niche, we have used L4.5 cells that express CD154. Co-incubation of CLL cells on this stroma for 24 h elicits marked resistance to many drugs including the BCL-2 inhibitor ABT-199 (FIG. 7). […] However, when ABT-199 and EX2 were combined, marked apoptosis was again observed. For example, 100 nM ABT-199 alone induced about 10% apoptosis, whereas when combined with 1 μM EX2, >60% apoptosis was observed within 6 h. The combination of 1 μM EX2 and 1 μM ABT-199 induced about 80% apoptosis. […]

[2] = tested on: normal peripheral lymphocytes; test: Toxicity to normal peripheral lymphocytes (PARP cleavage, chromatin condensation); assay type: cell-based, human; details: for PARP cleavage / apoptosis in normal peripheral lymphocytes: 0-1 μM EX2, 1-10 nM ABT-199 or 100 nM dinaciclib, each alone
Experimental: as §2
(§3) Cells were lysed in urea sample buffer [4 mol/L urea, 10% β-mercaptoethanol, 6% w/v SDS, 125 mmol/L Tris (pH 6.8), 0.01% w/v bromphenol blue, and protease/phosphatase inhibitor cocktail] and boiled for 5 min. Proteins were subsequently separated by SDS-PAGE (10 or 15% w/v) and transferred to polyvinylidene difluoride membrane (Millipore). Membranes were blocked with 5% w/v nonfat milk in TBS and 0.05% w/v Tween 20, and were probed with the appropriate primary antibody overnight. Subsequently, membranes were washed in TBS and 0.05% w/v Tween 20, and then incubated with secondary antibody conjugated to horseradish peroxidase. Proteins were visualized by enhanced chemiluminescence (Amersham). Actin was used as a loading control in Western blots.
To test the potential toxicity of EX2, normal peripheral lymphocytes were isolated from a healthy volunteer and incubated with EX2 alone or in combination with ABT-199.

[3] = biological target: hERG channel (Homo sapiens, UniProt Q12809); test: hERG channel inhibition, in vitro testing; assay type: biochemical
Sequence of hERG channel (Q12809 whole entry): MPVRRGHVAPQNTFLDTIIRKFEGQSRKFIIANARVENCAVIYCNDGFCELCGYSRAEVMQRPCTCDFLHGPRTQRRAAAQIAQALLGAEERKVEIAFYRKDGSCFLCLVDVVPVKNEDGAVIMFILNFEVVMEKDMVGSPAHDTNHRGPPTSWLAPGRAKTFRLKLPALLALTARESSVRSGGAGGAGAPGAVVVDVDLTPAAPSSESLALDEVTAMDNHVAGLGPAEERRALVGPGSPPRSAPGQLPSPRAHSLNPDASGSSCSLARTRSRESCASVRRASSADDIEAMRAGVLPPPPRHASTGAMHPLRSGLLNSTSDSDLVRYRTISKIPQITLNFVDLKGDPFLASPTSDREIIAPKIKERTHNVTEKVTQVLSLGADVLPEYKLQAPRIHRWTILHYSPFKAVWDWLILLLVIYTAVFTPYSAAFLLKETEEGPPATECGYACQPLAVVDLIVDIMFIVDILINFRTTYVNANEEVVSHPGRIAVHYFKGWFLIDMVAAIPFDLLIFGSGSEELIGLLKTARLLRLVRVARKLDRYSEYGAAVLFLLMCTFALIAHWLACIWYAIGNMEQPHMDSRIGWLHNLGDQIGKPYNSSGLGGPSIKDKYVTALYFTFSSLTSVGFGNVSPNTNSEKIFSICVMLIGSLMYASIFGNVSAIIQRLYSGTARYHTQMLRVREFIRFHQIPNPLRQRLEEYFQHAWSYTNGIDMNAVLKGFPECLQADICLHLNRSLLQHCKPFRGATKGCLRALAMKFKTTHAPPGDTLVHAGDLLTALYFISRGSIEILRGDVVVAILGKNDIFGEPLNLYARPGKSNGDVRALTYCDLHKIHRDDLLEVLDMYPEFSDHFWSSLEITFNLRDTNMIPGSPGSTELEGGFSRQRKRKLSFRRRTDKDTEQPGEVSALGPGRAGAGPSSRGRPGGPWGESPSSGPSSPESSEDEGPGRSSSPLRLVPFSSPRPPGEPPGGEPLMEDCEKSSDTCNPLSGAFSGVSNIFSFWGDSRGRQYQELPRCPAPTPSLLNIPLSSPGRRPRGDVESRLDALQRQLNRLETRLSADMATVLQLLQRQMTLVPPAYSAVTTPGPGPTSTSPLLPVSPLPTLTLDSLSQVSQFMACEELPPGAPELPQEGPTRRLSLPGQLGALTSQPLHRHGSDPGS
Text: (§4) Signs of cardiomyopathy were decreased in severity and incidence by 14 days after the 2-cycles of treatment, indicating recovery or reversibility of the effects. The implications of these findings for humans are not clear as these cardiovascular effects were not observed in dog toxicity studies. […] Thus an effect on the hERG channel is expected to be slight, if any, at efficacious doses of Example 2.

[4] = tested on: CLL cells; test: Chromatin condensation (Hoechst 33342) apoptosis scoring in freshly isolated CLL cells; assay type: cell-based, human
Experimental: as §1, §2

[5] = tested on: CLL cells; test: Immunoblot analysis (PARP cleavage, pJNK, Noxa) in CLL cells; assay type: cell-based, human
Experimental: as §1, §3

[6] = tested on: Jeko-1 cells; test: Kinetics of apoptosis in Jeko-1 cells (Western blots); assay type: cell-based; details: 20 nM EX2 (FIG. 6)
Experimental: FIG. 6: Kinetics of compounds of Formula (I) induced apoptosis in Jeko-1 cells. Western blots of Jeko-1 cells incubated with 20 nM compounds of Formula (I). “C”=a control cell line incubated with 2 μM vinblastine as a positive control for protein expression.
as §3

[7] = Dog toxicity studies, cardiovascular effects; assay type: in vivo; details: dogs
Text: as §4

[8] = Cardiovascular safety pharmacology study in telemetered dogs; assay type: in vivo, dog; details: doses up to 0.8 mg/kg (highest dose assessed)
Text: as §4

[9] = 2-cycle rat toxicity study; assay type: in vivo; details: rats, 2 cycles; decreased in severity and incidence by 14 days after treatment
Text: as §4

[10] = tested on: advanced solid tumors; test: Phase I study of Example 2 in subjects with advanced solid tumors; assay type: in vivo, human
Experimental: (§5) The recommended Phase 2 dose (RP2D) of Example 2 is evaluated in subjects with advanced solid tumors. Dosing is at a level of 2.1 mg/m^2. The dose of 16 mg/m^2 is deemed to be an MTD. In this study, adverse events are seen across all dose groups. The two most common categories of AE's are gastrointestinal disorders (nausea, vomiting, constipation) and general disorders (predominantly fatigue). Disorders related to bone marrow suppression are rare. Anemia is reported in one patient at a dose level of 8.4 mg/m^2 and in two patients at a dose level of 18.9 mg/m^2. […] Similarly, in a phase 11 study of Example 2 in patients with malignant pleural mesothelioma grade 1-2 gastrointestinal and general disorders are the predominant AE's: in 87% and 50% of patients correspondingly. Grade 3 fatigue is observed in 8% of patients. Finally, grade 1-2 anemia is reported in 33% of study participants.
Thus, this study employs 8 mg/m^2 iv on days 1 and 8 (cycle 1) or 8 and 15 (cycles 2-6) of a 21-day cycle as a starting dose of Example 2. This dose corresponds to a dose one tier below that sufficient to induce disruption of microtubules, yet also is lower than the currently established MTD in a Phase I study of Example 2 in patients with solid tumors. […] The study follows a standard 3+3 Phase I design (between 3 and 6 patients are enrolled at each dose tier). The dose of the drug is escalated to 16 mg/m^2, toxicities permitting. If toxicities emerge at dose level 1, the dose of Example 2 is de-escalated to 4 mg/m^2. […] Preliminary assessment of response and pharmacodynamic endpoints of treatment with Example 2 is assessed at several dose levels allowing for more careful selection of RP2D in CLL.

[11] = tested on: malignant pleural mesothelioma; test: Phase II study of Example 2 in patients with malignant pleural mesothelioma; assay type: in vivo, human
Experimental: as §5

[12] = tested on: microtubules in PBMCs; test: Disruption of microtubules in PBMCs of dosed subjects; assay type: in vivo, human; details: doses of 12.6 and 16 mg/m^2
[13] = healthy volunteer, 6 h, 0-1 μM EX2

CC1(C)CCC(CN2CCN(c3ccc(C(=O)NS(=O)(=O)c4ccc(NCC5CCOCC5)c([N+](=O)[O-])c4)c(Oc4cnc5[nH]ccc5c4)c3)CC2)=C(c2ccc(Cl)cc2)C1 [ABT-199, reference compound]
apoptosis ([1]; 100 nM ABT-199 alone, CLL cells on stroma, 6 h): about 10%
chromatin condensation in normal peripheral lymphocytes ([2]; ABT-199 1-10 nM with or without EX2, 6 h): no chromatin condensation was observed
PARP cleavage / apoptosis in normal peripheral lymphocytes ([2]; healthy volunteer, 6 h): slight PARP cleavage

COc1cc(C(=O)c2c(C)oc3c(O)c(OC)ccc23)cc(OC)c1OC [Example 1, 2-Methyl-7-hydroxy-3-(3,4,5-trimethoxybenzoyl)-6-methoxybenzofuran]
IC50 [3]: > 6.71 µM

COc1cc(C(=O)c2c(C)oc3c(OP(=O)([O-])[O-])c(OC)ccc23)cc(OC)c1OC.[Na+].[Na+] [Example 2, Disodium 6-methoxy-2-methyl-3-(3,4,5-trimethoxybenzoyl)benzofuran-7-yl phosphate]
potency as inducer of apoptosis compared with vinblastine and combretastatin A4 ([4]; chromatin condensation and PARP cleavage, 6 h, 3-6 patients): more potent inducer of apoptosis
concentration at which apoptosis (chromatin condensation) was observed ([4]; freshly isolated CLL cells, media with 0-1 μM EX2, 6 h (FIG. 1)): 10 to 100 nM
PARP cleavage in presence of JNK inhibitor VIII ([5]; 0-1 μM EX2, 6 h, with JNK inhibitor VIII): completely prevented
PARP cleavage by 24 h ([5]; 20 nM, patient 114, incubated up to 24 h (FIG. 5)): almost total cleavage of PARP
JNK activation and PARP cleavage five hours after removing EX2 ([5]; 1 h pulse treatment, then 5 h without EX2, versus continuous incubation): still observed albeit slightly less
concentration at which apoptosis, pJNK and Noxa expression began to appear ([5]; 6 h, patient 49 (FIG. 2A)): 5 nM
time to activation of JNK ([5]; CLL cells incubated with EX2): less than one hour
pJNK and NOXA in protein lysates ([5]; same concentrations of EX2 (10-100 nM), 6 h): increased
time by which apoptosis was complete [6]: up to 24 h
apoptosis of co-cultured CLL cells, EX2 alone ([1]; 1 μM EX2, 24 h on L4.5 stroma then 6 h drug): no apoptosis observed
Noxa induction in normal peripheral lymphocytes [2, 13]: no Noxa was induced
pJNK in normal peripheral lymphocytes [2, 13]: activated
PARP cleavage / apoptosis in normal peripheral lymphocytes ([2]; healthy volunteer, 6 h): no significant PARP cleavage or chromatin condensation
IC50 [3]: > 979 µM
effects on the cardiovascular system [7]: no effects on the cardiovascular system
effects on cardiovascular or respiratory function [8]: no effects on cardiovascular or respiratory function
cardiac finding [9]: dose-dependent, reversible cardiomyopathy
anemia, patients reported ([10]; dose level 8.4 mg/m^2): one patient
anemia, patients reported ([10]; dose level 18.9 mg/m^2): two patients
grade 4 events ([10]; dose level 18.9 mg/m^2, same subject): Two grade 4 events (myocardial infarction and peripheral neuropathy)
MTD ([10]; subjects with advanced solid tumors): 16 mg/m^2
Grade 3 fatigue, patients [11]: 8%
grade 1-2 anemia, study participants [11]: 33%
grade 1-2 gastrointestinal disorders, patients [11]: 87%
grade 1-2 general disorders, patients [11]: 50%
effect on microtubules in PBMCs [12]: briefly disrupt microtubules

CCc1cnn2c(NCc3ccc[n+]([O-])c3)cc(N3CCCC[C@H]3CCO)nc12 [Dinaciclib, reference compound]
PARP cleavage / apoptosis in normal peripheral lymphocytes ([2]; healthy volunteer, 6 h): some apoptosis
